# Experimental data reported in patent US5077207A, “Process for the production of L-threonine by fermentation” (Ajinomoto Co., Inc., priority 1989, dated 1991).
# Experiments:
# AJ 12360 (Mutant) = experiment: Degree of AHV resistance (growth in glucose minimum liquid medium, absorbance); format: cell-based; conditions: [Brevibacterium] flavum, 24 h, read-out: Relative Degree of Growth (%)
# Description: (§1) Thereafter, the degrees of AHV resistance of DPS deleted strains AJ 12360 and AJ 12361 were compared against their parent strains. The degree of AHV resistance was determined by cultivating the strain in the complete agar plate medium shown in Table 2 which also contained 1 g/l of DAP, […] of dipicolinic acid and further, in the case of AJ 12361 and its parent strain AC 664, 300 mg/l of L-histidine hydrochloride as a growth promoting substance, at 30° C. for 24 hours. The same medium dispensed in 3 ml into test tubes, was inoculated with the cells, and the inoculated media were cultured while being shaked for 24 hours. The absorbance of each medium was measured at 566 nm under conditions in which AHV was added or was not added to a given medium. To each glucose minimum liquid medium prepared were added, as growth promoting substances, 200 mg/l of L-histidine hydrochloride, in the case of AJ 12361 and AC 664 strains, and 500 mg/l each of DAP and lysine in the case of AJ 12360 and AJ 11955 strains. Especially, since DAP or DAP and lysine often promoted the growth of the DPS deleted or reduced strain, DAP was added to the liquid and plate media in the experiments described so far as needed. […]
# AJ 12361 (Mutant) = experiment: as above; format: cell-based; conditions: [Brevibacterium] flavum, 24 h, read-out: Relative Degree of Growth (%)
# Description: as §1
# Homoserine Dehydrogenase = Homoserine Dehydrogenase (Corynebacterium glutamicum, UniProt P08499); experiment: Homoserine dehydrogenase feedback inhibition by threonine (crude enzyme solution); format: biochemical, Brevibacterium flavum; conditions: 1 mM threonine
# Description: The amount of threonine produced in a given fermentation experiment was measured by the method described below, and the amount of lysine produced was measured by an acidic ninhydrin method. Further, the DPS activity was measured as follows. A medium obtained by adding 1 g/l of DAP to a medium useful for threonine production shown in Table 3 was dispensed in 20 ml amounts into 500 ml flasks which could be shaken. The flasks were sterilized by autoclaving. The medium compositions used were N50S30 for the AJ 12360 strain and N25S35 for the AJ 12361-2 and DA 110 strains. Each medium was inoculated with one loop of the strain which had been previously cultivated in a complete agar plate medium shown in Table 2. Each medium was supplemented with 1 g/l of DAP and 300 mg/l of L-histidine hydrochloride at 30° C. for 24 hours, and culturing was conducted at 30° C. for 40 hours in the shaking flasks. The cells were collected and washed with a 0.2% potassium chloride solution. These washed cells were suspended in a 50 mM potassium phosphate buffer (pH 7.0), and then were centrifugally separated after ultrasonic treatment in a supernatant. The supernatant was gel filtered through a Sephadex G25 column using the same buffer to prepare a crude enzyme solution. The activity was measured by carrying out the reaction at 30° C. for 10 minutes, terminating the reaction by adding 1 ml of 0.05 N hydrochloric acid thereto, and then measuring the change in absorbance at 340 nm by using a reaction mixture shown in Table 8 to determine the amount of pyruvic acid consumed. The control for this reaction was a DL-aspartate-β-semialdehyde-free system. The HD activity was measured as follows. The crude enzyme solution was prepared in a manner similar to that employed in the above-described DPS activity measurement, except that a 0.1 M potassium phosphate buffer containing 0.5 M potassium chloride (pH 7.0) was used as the buffer instead of the 50 mM potassium phosphate buffer. The activity measurement was conducted by measuring the reduction in absorbance at 340 nm in the reaction system shown in Table 9. The control for this reaction was a DL-aspartate-β-semialdehyde-free system. […]
# Homoserine Dehydrogenase, sequence (P08499 whole entry): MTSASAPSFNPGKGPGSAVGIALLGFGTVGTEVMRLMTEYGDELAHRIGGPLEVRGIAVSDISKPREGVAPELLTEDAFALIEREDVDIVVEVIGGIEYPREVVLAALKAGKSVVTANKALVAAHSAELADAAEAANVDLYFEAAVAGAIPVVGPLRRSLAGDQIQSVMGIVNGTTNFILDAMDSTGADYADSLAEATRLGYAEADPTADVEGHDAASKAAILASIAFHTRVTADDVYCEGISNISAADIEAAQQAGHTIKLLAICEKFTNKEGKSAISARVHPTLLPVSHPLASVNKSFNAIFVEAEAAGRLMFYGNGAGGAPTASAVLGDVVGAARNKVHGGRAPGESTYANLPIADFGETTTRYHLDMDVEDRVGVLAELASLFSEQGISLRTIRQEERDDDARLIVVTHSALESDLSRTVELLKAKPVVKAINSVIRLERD
SMILES,activity at 200000 µg/mL (AJ 12360 (Mutant)) [%],activity at 500000 µg/mL (AJ 12360 (Mutant)) [%],activity at 1 g/mL (AJ 12360 (Mutant)) [%],activity at 200000 µg/mL (AJ 12361 (Mutant)) [%],activity at 500000 µg/mL (AJ 12361 (Mutant)) [%],activity at 1 g/mL (AJ 12361 (Mutant)) [%],Homoserine Dehydrogenase Feedback Inhibition (%)** (Homoserine Dehydrogenase; enzyme from strain AC 664 (Parent strain)) [%],Homoserine dehydrogenase feedback inhibition by threonine (%) (Homoserine Dehydrogenase; enzyme from strain AJ 11955 (parent strain)),Homoserine dehydrogenase feedback inhibition by threonine (%) (Homoserine Dehydrogenase; enzyme from strain AJ 12360 (mutant)),Homoserine Dehydrogenase Feedback Inhibition (%)** (Homoserine Dehydrogenase; enzyme from strain AJ 12361 (Mutant)) [%],Homoserine Dehydrogenase Feedback Inhibition (%)** (Homoserine Dehydrogenase; enzyme from strain AJ12362 (Mutant)) [%],Homoserine Dehydrogenase Feedback Inhibition (%)** (Homoserine Dehydrogenase; enzyme from strain AJ12363 (Mutant)) [%],Homoserine Dehydrogenase Feedback Inhibition (%)** (Homoserine Dehydrogenase; enzyme from strain DA 110 (Mutant)) [%]
"CCC(O)C(N)C(=O)O (stereo not drawn) [AHV, α-amino-β-hydroxyvaleric acid]",46.7,42.6,37.5,105,65.8,39.1,,,,,,,
"C[C@@H](O)[C@H](N)C(=O)O [threonine, L-threonine]",,,,,,,98,98,98,98,96,16,98
